Data published in US9101569B2, “Methods for the treatment of insulin resistance” (UNIVERSITE DE GENEVE, priority 2010, dated 2015).

What was measured:
[1] = system: enzymes involved in lipid metabolism; assay: Tissue expression of lipid metabolism enzymes (real-time RT-PCR) after i.c.v. OT infusion; format: in vivo, rat
Procedure: To delineate the mechanisms responsible for the effect on peripheral metabolism, the expression of enzymes involved in lipid metabolism was analyzed in adipose tissues (epididymal white and interscapular brown adipose tissues). Total RNAs were extracted from frozen tissue using a single-step extraction with Trizol reagent (Sigma-Aldrich, Buchs, Switzerland). RNA integrity was assessed by electrophoresis on a 1% agarose gel and concentration was determined by spectrophotometry. An amount of 2.5 μg of total RNAs was used for RT using random hexamers (Microsynth, Geneva, Switzerland), dNTPs (Promega Corporation, Madison, Wis., USA), RNasin as an RNase inhibitor (Promega Corporation) and the Moloney Murine Leukemia Virus Reverse Transcriptase (M-MLV-RT) enzyme kit (Invitrogen, Basel, Switzerland). For quantitative PCR (qPCR), amplification of genes was performed from 6.25 or 12.5 ng cDNA, using the SYBR® green PCR Master Mix (Applied Biosystems, Warrington, UK) and an ABI7500 machine (Applied Biosystems, Foster City, Calif.). All the primers were designed (FIG. 9, Table 1) with the PrimerExpress software (http://phym.unige.ch/) and used at a concentration of 200 to 300 nM for qPCR. Results were normalized to the expression levels of the housekeeping gene, ribosomal protein S29 (RPS29).

HFD-induced obese rats [2] = assay: Euglycemic-hyperinsulinemic clamps after i.c.v. OT infusion; format: in vivo, rat; conditions: 14-day i.c.v. 1.6 nmol/d
Procedure: Global and tissue-specific glucose utilization rates were measured by performing euglycemic-hyperinsulinemic clamps associated with the labeled 2-deoxyglucose technique as previously described (Vettor et al., 1994, Diabetologia, 37, 1202-1208). HFD-induced obese rats were overnight fasted and intraperitoneally anesthetized with Nembutal (75 mg/kg sodium pentobarbital; Abbott Laboratories, Chicago, Ill.). Total glucose utilization was measured during euglycemic-hyperinsulinemic clamps, as previously described (Vettor et al., 1994, above). At the end of the clamp, the in vivo insulin-stimulated glucose utilization index of individual tissues was determined by injecting a single bolus of labeled 2-deoxy-D-[1-3H]glucose (30 μCi; Amersham Biosciences UK, Little Chalfont, UK), as previously described (Vettor et al., 1994, above). Rats were killed by rapid decapitation, and tissues were rapidly removed, freeze-clamped, and stored at −80° C. Measurement of tissue concentration of 2-deoxy-d-[1-^3H]glucose-6-phosphate allowed calculation (Vettor et al., 1994, above) of the in vivo glucose utilization index of individual tissues and was expressed in ng/mg·min.

HFD-induced obese rats [3] = assay: High-fat diet-induced obesity rat model, subcutaneous infusion: body weight gain, food intake, body composition; format: in vivo
Procedure: (§1) Another group of the above male Wistar rats were rendered obese as described above and were subcutaneously infused with saline or OT (NeoMPS®, Strasbourg, France) (50 nmol/day/rat) during 14 days.
(§2) The beneficial metabolic effects of OT administration were assayed in the same high-fat diet induced obesity model in rats as in Example 1 and in PPAR-alpha knockout mice (Lee et al., 1995, Mol. Cell. Biol., 15(6):3012-22). HFD-induced obese animals, saline or OT groups (see conditions under Example 1) were subcutaneously infused via minipumps (Alzet®, as above). OT was delivered at a dose of 50 nmol/day/rat during 14 days.
An EchoMRI-700 quantitative nuclear magnetic resonance (QMR) analyzer (Echo Medical Systems, Houston, Tex.) was used to measure total fat mass and lean body mass in rats at the beginning and the end of the treatment.
The beneficial metabolic effects of administration of an oxytocin derivative according to the invention (Carbetocin) were assessed in the same rat model of high-fat diet induced obesity as in Example 1. HFD-induced obese animals were subcutaneously infused via minipumps (Alzet®, as above) with saline or carbetocin (Bachem) (5 nmol/day/rat or 50 nmol/day/rat) during 14 days.
Body composition parameters were measured by quantitative nuclear magnetic resonance as described in Example 3 at the beginning and 10 days of treatment.

HFD-induced obese rats [4] = assay: Plasma glycerol after subcutaneous OT infusion in HFD-induced obese rats; format: in vivo, rat; conditions: peripheral (s.c.) OT 50 nmol/day
Procedure: as §1
To determine the effect of OT on peripheral metabolism, levels of plasma glucose, insulin, leptin, FFA, glycerol and TG were determined. Plasma glucose was measured by the glucose oxidase method (Glu, Roche Diagnostics GmbH, Rotkreuz, Switzerland). Plasma non-esterified fatty acid (NEFA) and triglyceride (TG) levels were determined using NEFA C and TG enzymatic PAP150 commercial kits from Wako Chemicals GmbH (Neuss, Germany) and Biomérieux (Marcy l'Etoile, France), respectively. Plasma OT levels were determined using an ELISA, as previously described (Pequeux et al., 2001, Scand. J. Clin. Lab. Invest., 61, 407-415). Plasma glycerol levels were measured using the free Glycerol Reagent (Sigma).

wild-type mice = assay: Peripheral OT infusion in wild-type littermate mice; format: in vivo; conditions: peripheral 50 nmol/day over 3 days
Procedure: as §2
OT was peripherally administered with 50 nmol/day over 3 days in PPAR-alpha knockout (KO) mice and their wild-type littermates. […] Consistently, OT peripheral infusion promoted an increase in the mRNA expression of PPAR-alpha target genes (Acadm, Acox1, Ehhadh, Ucp3) in wild-type mice, while it had no effect in PPAR-alpha knockouts.

HFD-induced obese rats [5] = assay: High-fat diet-induced obesity rat model, subcutaneous infusion: body weight gain, food intake, body composition; format: in vivo; conditions: s.c. OT 50 nmol/day, 10 days, independent of food intake
[6] = interscapular brown adipose tissue (BAT), i.c.v. OT

CC[C@H](C)[C@@H]1NC(=O)[C@H](Cc2ccc(O)cc2)NC(=O)[C@@H](N)CSSC[C@@H](C(=O)N2CCC[C@H]2C(=O)N[C@@H](CC(C)C)C(=O)NCC(N)=O)NC(=O)[C@H](CC(N)=O)NC(=O)[C@H](CCC(N)=O)NC1=O [OT, Cys-Tyr-Ile-Gln-Asn-Cys-Pro-Leu-Gly (SEQ ID NO: 1)]
mRNA expression of PPAR-alpha and its target genes ([1]; BAT, OT infusion (16 nmol/d experiment)): significantly increased
Acaca mRNA expression ([1]; eWAT, i.c.v. 1.6 nmol/d): did not modify
Acadm mRNA expression ([1]; eWAT, i.c.v. 1.6 nmol/d): increased
Acox1 mRNA expression ([1]; eWAT, i.c.v. 1.6 nmol/d): increased
Dgat1 mRNA expression ([1]; eWAT, i.c.v. 1.6 nmol/d): did not modify
Ehhadh mRNA expression ([1]; eWAT, i.c.v. 1.6 nmol/d): increased
Fasn mRNA expression ([1]; eWAT, i.c.v. 1.6 nmol/d): did not modify
HSL mRNA expression ([1]; eWAT, i.c.v. 1.6 nmol/d): increased
Lpl mRNA expression ([1]; eWAT, i.c.v. 1.6 nmol/d): increase
Pnpla2 mRNA expression ([1]; eWAT, i.c.v. 1.6 nmol/d): increased
Scd1 mRNA expression ([1]; eWAT, i.c.v. 1.6 nmol/d): marked increase
Ucp3 mRNA expression ([1]; eWAT, i.c.v. 1.6 nmol/d): enhanced
PPAR-alpha mRNA ([1]; eWAT, i.c.v. 16 nmol/d): did not modify
expression of PPAR-alpha target genes (Acadm, Acox1, Ehhadh, Ucp3) ([1]; eWAT, i.c.v. 16 nmol/d, food intake-independent): increases
stimulatory effect on Scd1 mRNA expression ([1]; i.c.v. 1.6 nmol/d (lower dose)): 4.2 folds
stimulatory effect on Scd1 mRNA expression ([1]; i.c.v. 16 nmol/d): 5.6 folds
PPAR-alpha expression [1, 6]: significantly increased
expression of the main enzymes involved in fatty acid β-oxidation [1, 6]: significantly increased
expression of genes involved in fatty acid β-oxidation ([1]; skeletal muscle, central OT infusion): did not modify
glucose uptake in epididymal WAT (HFD-induced obese rats [2]): significant increase
glucose uptake in inguinal WAT (HFD-induced obese rats [2]): significant increase
glucose infusion rate (GIR) (HFD-induced obese rats [2]; compared to saline): significant increases
glucose utilization index, red gastrocnemius (HFD-induced obese rats [2]; compared to saline): significant increases
glucose utilization index, red quadriceps (HFD-induced obese rats [2]; compared to saline): significant increases
glucose utilization index, soleus (HFD-induced obese rats [2]; compared to saline): significant increases
food intake (HFD-induced obese rats [3]; s.c. 50 nmol/day, 14 days): decreased
body weight gain (HFD-induced obese rats [3]; s.c. 50 nmol/day, 14 days, not observed in pair-fed group): decreased
fat mass by weighing adipose tissue depots (HFD-induced obese rats [3]; s.c. OT 50 nmol/day): food intake-independent decrease
plasma glycerol levels (HFD-induced obese rats [4]): increased
body weight gain (wild-type mice): significant decrease
mRNA expression of PPAR-alpha target genes (Acadm, Acox1, Ehhadh, Ucp3) (wild-type mice): increase
fat mass (QMR) (HFD-induced obese rats [5]): significant decrease
percent lean body mass (QMR) (HFD-induced obese rats [5]): increase
